# Laboratory results as given in PubChem BioAssay (NCI).
# “And” between values parts separate entries of the source, which are not always exact repeats. Equal values may be shown once.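 1) Cells in 96-well plates. 2) Compound, 48 h, 5 concentrations. 3) Linear interpolation between surrounding doses. 4) Unreached endpoint = highest concentration. Abbreviation: GI50, concentration required for 50% inhibition of growth. TGI marks complete inhibition of growth.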
# Test system: MDA-MB-468 breast
# Assay: growth of human tumour cells (NCI), 48 h
SMILES,GI50,TGI
CNC[C@@H](NC(=O)c1ccc(-c2nc([C@H]3CC[C@H](O)[C@@H](F)C3)cnc2N)cc1F)c1cc(F)cc(Br)c1,13200 nM,28400 nM
Oc1ccc(Cl)cc1-c1cc(-c2ccc(Cl)cc2)n[nH]1,1400 nM,6440 nM
COc1ccc2[nH]c(=O)c(/C=C/C(=O)c3ccccc3OC)cc2c1,336 nM,1650 nM
COc1cccc(-n2ncc3c(N/N=C/c4cccc(F)c4)ncnc32)c1,5440 nM,13600 nM
COC(=O)CCC1=C(C)C(C)=N/C1=C\c1[nH]c(-c2ccc[nH]2)cc1OC,647 nM,2700 nM
C/C(=N\NC(=O)c1ccccc1N)c1ccccc1O,1710 nM,13800 nM
Nc1c(C(=O)c2cccc(-c3ccncc3)c2)cnn1-c1ccc(F)cc1,4420 nM,> 25000 nM
O=C(Nc1ccc(-n2ccc3c(NC(=O)c4ccccc4)ncnc32)cc1)c1ccc(Cl)c(C(F)(F)F)c1,2860 nM,9230 nM
c1ccc(-c2cccc(-c3ccccn3)n2)nc1,284 nM,1730 nM
O=C(C1CC1)N1CC[C@@H](Cc2n[nH]c(=O)n2-c2ccc(-c3ccc4occc4c3)cc2)C1,20300 nM,98100 nM
C#CCN(C)CCCOc1ccc(NCc2ccc(/C=C/C(=O)NO)cc2)cc1Cl,411 nM,3550 nM
COc1ccc2c(c1)C(=O)c1c-2c(=O)n(CCCCCCC(=O)NO)c2ccccc12,46.3 nM,449 nM
COc1ccc(-c2cn(-c3cccc(C(=O)/C=C/c4cc(OC)c(OC)c(OC)c4)c3)c(=O)[nH]2)cc1,3070 nM,10800 nM
CN1C(=O)C23CC4(C56CC78SSC(CO)(C(=O)N7C5Nc5ccccc56)N(C)C8=O)c5ccccc5NC4N2C(=O)C1(CO)SS3 (stereo unspecified),< 24.1 nM,60.6 nM
N=C(N)c1ccc(-c2ccc(-c3ccc(F)cc3)s2)nc1,1630 nM,3380 nM
NC(=O)c1cc(Cl)ccc1NC(=O)COc1ccccc1,1740 nM,> 100000 nM

SMILES,GI50,TGI
COC(=O)[C@]12CC[C@@H](C(=O)/C=C/c3cccnc3)[C@@H]1[C@H]1CC[C@@H]3[C@@]4(C)C/C(=C/c5cccnc5)C(=O)C(C)(C)[C@@H]4CC[C@@]3(C)[C@]1(C)CC2,272 nM,712 nM
NC1(c2ccc(-c3nc4ccn5c(=O)[nH]nc5c4cc3-c3ccccc3)cc2)CCC1,16.9 nM and 94.3 nM and 62.6 nM,–
Nc1cc2ccccc2c(O)c1O,2190 nM,4750 nM
C=C1C(=O)O[C@H]2[C@H]1CC/C(COC(=O)NCc1c[nH]c3ccc(Br)cc13)=C\CC[C@@]1(C)O[C@@H]21,451 nM,1930 nM
CCN1CCN(Cc2ccc(NC(=O)c3nc4ccc5[nH]ncc5c4c4c3CCCC4)cc2C(F)(F)F)CC1,893 nM,1790 nM
COC(=O)[C@@H](C)C[C@H](Cc1ccccc1)NC(=O)c1nc([C@@H](C[C@H](C(C)C)N(C)C(=O)[C@@H](NC(=O)[C@H]2CCCCN2C)C(C)C)OC(C)=O)sc1C(C)C,< 3.33 nM,137 nM
CCOC(=O)C#Cc1c(C(=O)OCC)nnn1Cc1ccc(C(F)(F)F)cc1,1880 nM,4050 nM
N=C(N)c1ccc(-c2ccc(-c3cccs3)o2)cc1,1720 nM,3400 nM
O=C1C=C2C(=CCOC2O)O1 (stereo unspecified),425 nM,2760 nM
CCN1C2=C(SC(=S)C1=C1SC(C(=O)OC)=C(C(=O)OC)S1)SC(=Nc1ccc(OC)cc1)C2=O,1730 nM,3460 nM
O=c1[nH]c2c3ccncc3cc(-c3cccc(Cl)c3)c2c2cnccc12,> 100000 nM,> 100000 nM
COc1cc(/C=C\c2cc(/C=C\c3ccc(O)c(OC)c3)n(C(=O)COc3ccccc3)n2)ccc1O,1710 nM,7390 nM
CC(C)CNC(=O)c1ccc(NC(=O)N(CC(C)C)C(=O)c2ccc(N)c(OCCCN)c2)c(OCCCN=C(N)N)c1,> 62500 nM,> 62500 nM
CN1CCN(Cc2ccc(NC(=O)c3cncc(C#Cc4cnc5ccc(Cl)nn45)c3)cc2C(F)(F)F)CC1,1110 nM,2580 nM
O=C1C=C(Nc2cccnc2)c2ccccc2C1=O,3200 nM,11100 nM
